Results from patent publication US7645882B2, “Inhibitor of protein modification products formation” (priority 2003, dated 2010).

Experiments:
SHR/NDmcr-cp rats = assay: In vivo endoplasmic reticula stress alleviation, anti-ORP150 immunostaining of kidney; parameters: species or system rat; details: 100 mg/1 kg body weight by diet, 33 weeks aged
Description: Endoplasmic reticula stress alleviation effect by TM-2002 was examined using SHR/NDmcr-cp (Disease Model Cooperative Research Association) rats, which have been known their high blood pressure, hyperglycemia, hyperlipemia, obesity and hyperinsulinemia and renal function disorder while aging, and immunostained utilizing anti-ORP150 antibody. The stained section samples which were used for staining were prepared as following manner; SHR/NDmcr-cp rats which were administered the desired amount of test compound TM-2002 (dose: 100 mg/1 kg body weight) by diet (30 g daily), the rats which were administered no drug and SHR (hypertension) rats and Wistar Kyoto rats (control); kidney tissues of each rat were obtained after the end of drug administration period (33 weeks aged); all of tissues were fixed by Carnoy and embedded in paraffin. The staining of each samples was carried out by Catalyzed Sifnal Amplification(CSA) System (DAKO) according to their protocol. […] The samples were observed by microscopic visualization with optical microscope (Olympus) and analyzed the result. […]

[1] = test system: middle cerebral artery ischemia-reperfusion model; assay: Cerebroprotective action in middle cerebral artery ischemia-reperfusion model; assay type: in vivo, rat
Description: CD(SD)IGS male rats (Japan Charles river Kabushiki kaisha, Hino farm, room No. 22, specific product) (8 rats per one group) having body weight 270 to 350 g were anesthetized by 2% isoflurane (mixed bas comprising of 70% N2O (laughter gas) and 30% O2) to immobilize, and then the rats were put on warming plate to keep the rectal and brain temperature 37 to 38° C. After that, to observe the stability in the examination, cannula which was made by polyethylene (PE-50, Becton Dickinson) was inserted and left in caudal artery of said animal, and this made blood drawing and blood pressure determining to monitor the biochemical parameter such as blood sugar level, hematocrit, CO2 concentration, oxygen partial pressure, pH, blood pressure and etc. In addition, cerebral blood flow in cortex was determined by laser doppler fluorometry (Neuroscience.inc: OMEGA FLOW (FLO-C1)), putting the detection site directly on cranium on the point left 4 mm from bregma. Left neck of such animal was incised, and from internal and external carotid fork of common carotid artery to upstream of internal carotid, nylon surgical thread (length 16 mm, diameter 0.2 to 0.3 mm, with silicon coating on its tip 3 mm) was passed and left, middle cerebral artery was obstructed for 2 hours. After that, the thread was removed to release the middle cerebral artery, and blood was reperfused for 21 hours. To each animals, 3.0 mg/kg of edaravone (control) and 5.58 mg/kg of TM-2002 were respectively administered twice by cannula which is left in caudal artery 5 minutes and 5 hours after middle cerebral artery occlusion. After said operation, the brain was removed from said animal, and after preparing 7 brain slices with 2 mm thickness, to TTC stain (0.8 g of 2,3,5-triphenyltetrazolium chloride (Sigma) dissolved in 40 ml of saline) were soaked at 37° C. for 15 minutes to stain, the area of infarction and fixed by 10% neutral formalin liquid to prepare specimen. Such specimens were created the image by CCD camera respectively, and analysed according to method of Swanson et al. (J Cereb Blood Flow Metab 10:290-293; 1994). […] Furthermore, function recovering was estimated before and after the operation by rotor rod test that estimates how much they can walk on rotating rotor.

pentosidine = assay: Pentosidine production inhibiting effect with BSA and arabinose; assay type: biochemical; details: BSA and arabinose instead of plasma
In short: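 Heparinized hemodialysis-patient plasma (replaced here by BSA plus arabinose) incubated with compound at 0.8, 2.0, 5.0 mM final, 37 °C, one week. Protein TCA-precipitated, hydrolysed in 6N HCl at 110 °C for 16 h; free pentosidine quantified by reversed-phase HPLC with fluorescence (ex/em 335/385 nm) against synthetic standard.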

SMILES: Cc1ncc2c(c1O)C(c1c(C)nn(-c3ccccc3)c1O)OC2 (stereo not shown) [compound 68, 1-(5-hydroxy-3-methyl-1-phenyl-1H-pyrazol-4-yl)-6-methyl-1,3-dihydro-furo[3,4-c]pyridin-7-ol]
- ORP150 positive staining site / ER stress in kidney (SHR/NDmcr-cp rats): decrease of positive staining site and suppressing ER stress
- cerebral infarction nest ([1]; 2 hours occlusion, 21 hours reperfusion, edaravone 3.0 mg/kg, TM-2002 5.58 mg/kg, twice (5 minutes and 5 hours after occlusion), vs excipient): significantly reduced
- improvement for nervous condition and recovering the function ([1]; compared to excipient single administration): remarkably shown
- Pentosidine production rate in 5 mM of medicament (%) (pentosidine): 2.82%
